Test system: E. coli strain W3110
Assay: Synergy assays: Biolog chemical sensitivity panels with Group IB metal, coefficient of drug interaction (CDI) from relative growth
Assay type: cell-based
Details: for CDI (coefficient of drug interaction), gold + biocide: Gold (μM); for CDI (coefficient of drug interaction), copper mixed with biocide: Copper (mM) section
[1] = Copper (mM), 1st of 3 copper concentrations (head line not shown), biocide concentration 4 of 4, E. coli
[2] = Copper (mM), 2nd of 3 copper concentrations (head line not shown), biocide concentration 4 of 4, E. coli
[3] = Copper (mM), 3rd of 3 copper concentrations (head line not shown), biocide concentration 4 of 4, E. coli
[4] = first of 3 gold concentrations, biocide concentration 4 of 4
[5] = second of 3 gold concentrations, biocide concentration 4 of 4
[6] = third of 3 gold concentrations, biocide concentration 4 of 4
[7] = Silver 0.5 μM, biocide concentration 4 of 4
[8] = Silver 1.0 μM, biocide concentration 4 of 4
[9] = Silver 5.0 μM, biocide concentration 4 of 4
[10] = 1st of 3 copper concentrations (value not shown), 4th of four biocide concentrations
[11] = 2nd of 3 copper concentrations (value not shown), 4th of four biocide concentrations
[12] = 3rd of 3 copper concentrations (value not shown), 4th of four biocide concentrations
[13] = Gold section of Table 5, first of three gold concentrations (μM, value not given), biocide concentration 4 of 4
[14] = Gold section of Table 5, second of three gold concentrations (μM, value not given), biocide concentration 4 of 4
[15] = Gold section of Table 5, third of three gold concentrations (μM, value not given), biocide concentration 4 of 4
[16] = Silver 0.5 μM, biocide concentration 3 of 4
[17] = Silver 1.0 μM, biocide concentration 3 of 4
[18] = Silver 5.0 μM, biocide concentration 3 of 4

O=C(O)c1cc(O)c(O)c(O)c1 [gallic acid]
Tox: CDI (coefficient of drug interaction) [1] | CDI (coefficient of drug interaction) [2] | CDI (coefficient of drug interaction) [3] | CDI (coefficient of drug interaction), gold + biocide [4] | CDI (coefficient of drug interaction), gold + biocide [5] | CDI (coefficient of drug interaction), gold + biocide [6] | CDI [7] | CDI [8] | CDI [9]

CC(C)c1nc2nc(N)nc(N)c2nc1C(C)C [2,4-Diamino-6,7-diisopropylpteridine]
Tox: CDI (coefficient of drug interaction), copper mixed with biocide [10] | CDI (coefficient of drug interaction), copper mixed with biocide [11] | CDI (coefficient of drug interaction), copper mixed with biocide [12] | CDI (coefficient of drug interaction) [13] | CDI (coefficient of drug interaction) [14] | CDI (coefficient of drug interaction) [15] | CDI (coefficient of drug interaction), silver + biocide (Silver 0.5 μM, 4th of four biocide concentrations, E. coli) | CDI (coefficient of drug interaction), silver + biocide (Silver 1.0 μM, 4th of four biocide concentrations, E. coli) | CDI (coefficient of drug interaction), silver + biocide (Silver 5.0 μM, 4th of four biocide concentrations, E. coli)

O=[N+]([O-])c1ccc(Cl)c([N+](=O)[O-])c1 [1-chloro-2,4-dinitrobenzene]
Tox: CDI (coefficient of drug interaction), copper mixed with biocide [10] | CDI (coefficient of drug interaction), copper mixed with biocide [11] | CDI (coefficient of drug interaction), copper mixed with biocide [12]

CCn1cc(C(=O)O)c(=O)c2cc(F)c(N3CCNCC3)cc21 [norfloxacin]
Tox: CDI (coefficient of drug interaction) (Gold 50 μM, biocide concentration 4 of 4, E. coli)

Cl.N[C@@H](CCl)C(=O)O [β-Chloro-L-alanine HCl, β-chloro-L-alanine hydrochloride]
Tox: CDI [16] | CDI [7] | CDI [17] | CDI [8] | CDI [18] | CDI [9]

CCn1cc(C(=O)O)c(=O)c2cnc(N3CCNCC3)nc21 [pipemidic acid]
Tox: CDI (coefficient of drug interaction), copper mixed with biocide (1st of 3 copper concentrations (value not shown), 3rd of four biocide concentrations) | CDI (coefficient of drug interaction), copper mixed with biocide [10] | CDI (coefficient of drug interaction), copper mixed with biocide (2nd of 3 copper concentrations (value not shown), 3rd of four biocide concentrations) | CDI (coefficient of drug interaction), copper mixed with biocide [11] | CDI (coefficient of drug interaction), copper mixed with biocide (3rd of 3 copper concentrations (value not shown), 3rd of four biocide concentrations) | CDI (coefficient of drug interaction), copper mixed with biocide [12]

COc1ccc(CO)cc1OC [3,4-dimethoxybenzyl alcohol]
Tox: CDI (coefficient of drug interaction), copper mixed with biocide [10] | CDI (coefficient of drug interaction), copper mixed with biocide [11] | CDI (coefficient of drug interaction), copper mixed with biocide [12] | CDI (coefficient of drug interaction) [13] | CDI (coefficient of drug interaction) [14] | CDI (coefficient of drug interaction) [15] | CDI [7] | CDI [8] | CDI [9]

Nc1nc[nH]n1 [3-Amino-1,2,4-triazole]
Tox: CDI (coefficient of drug interaction), copper mixed with biocide [10] | CDI (coefficient of drug interaction), copper mixed with biocide [12] | CDI (coefficient of drug interaction) [13] | CDI (coefficient of drug interaction) [14] | CDI (coefficient of drug interaction) [15] | CDI [7] | CDI [8] | CDI [9]

CCCCCCCC(=O)[O-].[Na+] [sodium caprylate]
Tox: CDI (coefficient of drug interaction) [1] | CDI (coefficient of drug interaction) [2] | CDI (coefficient of drug interaction) [3] | CDI (coefficient of drug interaction), gold + biocide (first of 3 gold concentrations, biocide concentration 3 of 4) | CDI (coefficient of drug interaction), gold + biocide [4] | CDI (coefficient of drug interaction), gold + biocide (second of 3 gold concentrations, biocide concentration 3 of 4) | CDI (coefficient of drug interaction), gold + biocide [5] | CDI (coefficient of drug interaction), gold + biocide (third of 3 gold concentrations, biocide concentration 3 of 4) | CDI (coefficient of drug interaction), gold + biocide [6] | CDI [16] | CDI [7] | CDI [17] | CDI [8] | CDI [18] | CDI [9]
